Earlier results as cited in patent US6372707B1, “Cleaning compositions” (Lever Brothers Company, division of Conopco, Inc., priority 1997, dated 2002).

Details: for Water Solubility (g/100 g): grams of solid to form a saturated solution in 100 grams of water at 20° C.

Row | Water Solubility (g/100 g) | solubility in water (at 20° C.) | SMILES
1 | 15 g/100 g | – | O=P(O)(O)OP(=O)(O)OP(=O)(O)O [Sodium tripolyphosphate anhydrous]
2 | >100 g/100 g | exceeding 100 gms per 100 ml water | NC(N)=O [Urea]

Row | SMILES | Water Solubility (g/100 g) | solubility in water (at 20° C.)
3 | O=BO[O-].[Na+] [Sodium perborate anhydrous] | 3.7 g/100 g | –
